Reference: patent publication US20200368175A1, “METHODS AND DEVICES FOR TREATING LEVODOPA INDUCED DYSKINESIA” (CHRONO THERAPEUTICS INC., priority 2017, published 2020)
Where two headings read alike, the source gives them in different places.

Tests used:
clinical = assay: clinical
Protocol: The graph is based on the oral nicotine administration protocol administering a 6 mg nicotine tablet every 6 hours, as described in International Patent Publication No. WO 2013/006643, the entirety of which is incorporated by reference herein.
To obtain the graph shown in FIG. 2, the plasma concentration-time profile of oral nicotine was simulated using the pharmacokinetic equation (equation 1) for multiple-dose oral administration: […]
where F is oral bioavailability. D is oral dose, ka is absorption rate constant. Vd is volume of distribution, ke is elimination rate constant, s is dose interval, n is the number of dose, and C is the plasma concentration at any time ‘t’.
The pharmacokinetic parameters F, D, and T were obtained from Hukkanen, J. et al. Pharmacol Rev. 2005 March; 57(1):79-115 and U.S. Patent Publication No. 20130017259A1. Further, the pharmacokinetic parameter absorption rate constant (ka) shown in the above table was obtained by fitting the orally administered nicotine PK data (obtained from Benowitz, N. L. et al. Clin Pharmacol Ther. 1991 March; 49(3):270-7) to a two-compartmental pharmacokinetic model (shown in FIG. 4). Pharmacokinetic parameters Vd (volume of distribution) and ke (elimination rate constant) were obtained by fitting intravenously administered nicotine PK data (obtained from Benowitz, N. L. et al. Clin Pharmacol Ther. 1991 March; 49(3):270-7) to the two-compartmental model shown in FIG. 4 without the absorption component and lag component.

[1] = transdermal delivery device, clinical PK data fitted to two-compartmental model with lag compartment
Excerpt: To obtain the graphs shown in FIGS. 5-7, the plasma concentration-time profile of nicotine administered transdermally was simulated by means of a two compartmental model, as shown in FIG. 4. In addition to the two compartments (Central and peripheral), the lag compartment was included to take absorption lag into account associated with transdermal delivery.

[2] = oral nicotine, human; from Hukkanen et al. and US 20130017259A1; cited from earlier work
[3] = amnestic MCI subjects, six months, cited from earlier work

Structure (SMILES): CN1CCCC1c1cccnc1 (stereo not drawn) [nicotine]
- Vd (clinical; human, plasma, iv): 76 L
- ke (elimination rate constant), average value (clinical; intravenous nicotine PK data of Benowitz et al. fitted to two-compartmental model without absorption and lag components): 0.9 h⁻¹
- ka (absorption rate constant), average value (clinical; oral nicotine PK data of Benowitz et al. fitted to two-compartmental model): 2.5 h⁻¹
- Vd (volume of distribution), average value [1]: 59 L
- ka (absorption rate constant), average value [1]: 0.29 h⁻¹
- ke (elimination rate constant), average value [1]: 2.15 h⁻¹
- F (oral bioavailability), average value [2]: 0.32
- effect on attention, memory and psychomotor speed ([3]; 15 mg per day transdermal nicotine vs placebo): significant nicotine-associated improvements in attention, memory, and psychomotor speed
- safety and tolerability ([3]; 15 mg per day transdermal nicotine): excellent safety and tolerability
